Measurements taken from patent US10172820B2, “Skin preparation composition for external use having excellent antiseptic ability” (AMOREPACIFIC CORPORATION, priority 2011, dated 2019).

Assay: Skin irritation test (24 hour patch test)
Set-up: species or system human
Conditions: in vivo; for Average skin irritation score: human, 24 h
Description: The patch is applied to the upper part of the back of each panel, using 20 μL of the test ingredient on an IQ chamber (Chemotechique, […]). The patch is removed after 24 hours of application and a first evaluation is conducted in 30 more minutes. After 24 hours, a second evaluation is carried out. To determine the severity of the skin irritation of each specimen, a weighted grade is applied according to the severity of the positive reaction on the skin to calculate the average skin irritation score as given by the following Equation and determine the severity of the skin irritation from the specimen. […] Mild irritation Score≥5: Severe irritation

Structure (SMILES) | Average skin irritation score (1 %) | Skin irritation, result in words | Average skin irritation score (4 %) | Average skin irritation score (5 %)
COc1ccc(C(=O)O)cc1 [p-anisic acid] | 0.94 | almost no irritation |  | 
C=CCCCCCCCCC(=O)OCC(O)CO (stereo not drawn) [Glyceryl undecylenate, glyceryl undecylenate] |  | almost no irritation | 0.00 | 
CCCCCCCC(=O)OCC(O)CO (stereo not drawn) [Glyceryl caprylate, glyceryl caprylate] |  | almost no irritation |  | 0.94
